# From article PMC8947478, “Novel, First-in-Human, Oral PCLX-001 Treatment in a Patient with Relapsed Diffuse Large B-Cell Lymphoma” (Current Oncology, 2022)
# Entries after “also recorded” stand apart in the source; their conditions may differ. Read-outs that look alike come from different tables or passages of the source.
# Tests used:
# HGAL [1] = tested on: HGAL; parameters: method as in PMID 33093447; conditions: multiple Burkitt Lymphoma and Diffuse Large B cell lymphoma cell lines; cited from earlier work
# [2] = tested on: relapsed diffuse large B-cell lymphoma; assay: Efficacy assessment by imaging (Lugano classification criteria); type: in vivo, human; conditions: patient, 20 mg oral daily, CT on day 29
# From the text: The subject had baseline cross-sectional and PET imaging. Protocol-defined imaging was CT every 2 cycles and PET every 6 cycles or as clinically indicated. Evaluation of response was by the Lugano classification criteria for the evaluation of non-Hodgkin lymphoma.
# HGAL [3] = assay: Flow cytometry of intracellular HGAL level in PBMC populations; type: in vivo, human
# Method: (§1) Peripheral blood was collected from the patient at each sampling point (Screen, Day 1, and Day 28 of treatment) by venipuncture according to normal phlebotomy practice in 2 × 8 mL BD Vacutainer® CPT™ Tubes. Samples were immediately mixed by gentle inversion 10 times and process for PBMC isolation within 1 h. After centrifugation (1800× g for 20 min) at room temperature (18–25 °C) in a swinging bucket rotor (swing-out head), the mononuclear cells and platelets (referred to as PBMC) were carefully collected as the whitish layer just above the polyester gel and under the plasma layer, transferred into 9 mL freezing media (8 mL Fetal Bovine Serum and 1 mL DMSO), and stored at −70 °C or below until flow cytometry analysis.
# (§2) PBMC were recovered by centrifugation (400× g for 5 min), washed in RPMI culture media, resuspended in PBS, and prepared for FACS analysis. PBMC were first labeled with Zombie Aqua™ Fixable Viability kit (1/100, 20 min at 4 °C; BioLegend, San Diego, CA, USA) for exclusion of dead cells, blocked with Human TruStain FcX Fc receptor blocking solution (5/100, 10 min at room temperature, BioLegend), then stained for extracellular markers using antibodies ECD-CD3 (clone UCHT1) and PE-Cy7-CD4 (clone SFCI12T4D11) from Beckman Coulter (Missaugua, ON, Canada) PerCp-Cy5.5-CD8 (SK-1) and BV-785CD19 (clone HIB19) from BioLegend, and PE-CF594-CD14 (clone MΦPG) from BD Bioscience (Mississauga, ON, Canada) for 20 min at 4 °C. The cells were then fixed and permeabilized using the eBioscience Intracellular Fixation and Permeabilization buffer set (Invitrogen, Mississauga, ON, Canada) and stained for intracellular markers AF-488-HGAL (clone 1H1-A7, eBioscience), AF-488-Lyn (Lyn-01, ab1890, Abcam, Cambridge, UK), and homemade monoclonal antibodies AF-700-NMT1(clone 6F8D5) and APC-NMT2 (clone 6C5E8), as previously described, in parallel with relevant isotype controls for at least 30 min at 4 °C. Prior to applying in the test, intracellular antibodies were first labeled with different fluorochromes using Lightning-Link conjugation kits (Abcam) and titrated to achieve the best concentration. Finally, samples were acquired on a Fortessa X-20 flow cytometer (BD Bioscences, Faculty of Medicine and Dentistry Flow Cytometry Facility, University of Alberta). Data were analyzed using FlowJo software (TreeStar, Ashland, OR, USA, version 10.8).
# [4] = tested on: T cells, B cells, and monocyte population; assay: Flow cytometry of live PBMC populations in the treated patient; type: in vivo, human
# Method: as §1, §2
# Lyn [5] = tested on: Lyn; parameters: method as in PMID 33093447; conditions: multiple Burkitt Lymphoma and Diffuse Large B cell lymphoma cell lines; cited from earlier work
# [6] = cited from earlier work
# [7] = Toxicity assessment in phase I trial (CTCAE version 5.0, DLT); type: in vivo, human; conditions: patient, 20 mg oral daily
# Method: The subject was assessed for toxicity using daily diary entries, clinical assessments at baseline, day 8, day 15, day 22, and day 28. Dose-limiting toxicities (DLTs) were defined as the following cycle 1 CTCAE version 5.0 adverse events: Gr 4 platelets, Gr ≥ 3 platelets with bleeding and/or transfusions, Gr 4 ANC for ≥ 7 days, Gr ≥ 3 febrile neutropenia, and Gr ≥ 3 non-hematological toxicity.
# Lyn [8] = assay: Flow cytometry of intracellular Lyn level in PBMC populations; type: in vivo, human
# Method: as §1, §2
# [9] = Pharmacokinetic analysis of plasma after oral PCLX-001 (UHPLC-MS, two-compartment model); type: in vivo, human; conditions: patient
# Method: The primary pharmacokinetic analysis endpoints were:
# Tmax is the time at which the maximum plasma concentration of PCLX-001 is achieved.
# Cmax is the maximum plasma concentration of PCLX-001.
# The patient was dosed with oral doses of PCLX-001 20 mg. After dosing, the blood samples (3 mL volume) were serially collected into heparinized tubes from a right forearm butterfly cannula. All blood fluid specimens were frozen and later assayed using a validated UHPLC-MS detection method.
# PK Solver 2.0 freeware (https://www.boomer.org/boomer/software/pksolver.zip; accessed 26 November 2021) was used to determine the single dose pharmacokinetic parameters using a two-compartment model. The terminal phase rate constant (λz) was estimated by applying exponential linear regression to the concentrations in the terminal phase, and the apparent terminal half-life (t 1/2) was estimated as 0.693/λz. The area under the concentration (AUC) vs. time curve from the time of injection to the last (Clast) measured concentration (AUC0-tlast) was calculated. […] Oral body clearance (CLoral) was calculated as the ratio of the dose to the AUC0–∞. The area under the first moment concentration vs. time curve (AUMC) was estimated as the sum of the area under the C × t vs. t curve from time zero to Clast, plus the ratios of Clast × t/λz and Clast/λz 2. The mean residence time (MRT) was calculated as the ratio of AUMC to AUC0–∞). The apparent volume of distribution of steady-state (Vdss) was calculated as the product of CL × MRT.
# kinase = tested on: kinase; parameters: method as in PMID 33093447; conditions: KINOMEscan; cited from earlier work
# [10] = tested on: hematologic and lymphoma cell lines; parameters: method as in PMID 33093447; conditions: tissue culture; cited from earlier work
# [11] = tested on: human cancers grown in immunodeficient mice; conditions: cited from earlier work
# [12] = animal models; cited from earlier work
# [13] = tested on: Bruton tyrosine kinase (BTK); parameters: method as in PMID 33093447; conditions: models of human lymphoma; cited from earlier work
# NMT2 = target: T1, NMT2 (Homo sapiens, UniProt O60551); assay: Flow cytometry of intracellular NMT2 level in PBMC populations; type: in vivo
# T1 construct: homemade monoclonal antibodies AF-700-NMT1(clone 6F8D5) and APC-NMT2 (clone 6C5E8); endogenous in cells; host or cells: patient peripheral blood mononuclear cells (CD4+, CD8+, CD19+, CD14+ populations)
# T1 sequence (O60551 1-498): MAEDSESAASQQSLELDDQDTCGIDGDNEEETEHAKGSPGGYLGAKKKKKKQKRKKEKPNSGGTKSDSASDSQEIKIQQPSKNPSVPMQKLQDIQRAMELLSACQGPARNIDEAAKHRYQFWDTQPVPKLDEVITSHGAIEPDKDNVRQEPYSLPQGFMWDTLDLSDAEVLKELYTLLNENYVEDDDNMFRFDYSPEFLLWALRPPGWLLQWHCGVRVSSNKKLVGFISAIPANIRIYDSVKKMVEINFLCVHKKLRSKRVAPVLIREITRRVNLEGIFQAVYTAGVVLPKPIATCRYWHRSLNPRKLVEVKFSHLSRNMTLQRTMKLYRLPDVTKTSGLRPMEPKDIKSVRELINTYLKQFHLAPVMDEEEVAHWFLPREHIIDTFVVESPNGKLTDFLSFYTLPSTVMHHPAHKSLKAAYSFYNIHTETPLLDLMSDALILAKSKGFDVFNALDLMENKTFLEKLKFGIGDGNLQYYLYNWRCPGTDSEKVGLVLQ
# Method: as §1, §2
# hERG = conditions: preclinical testing; cited from earlier work
# [14] = 20 mg daily, 28 days, all populations
# [15] = 20 mg oral, Day 1 single dose, plasma
compound,measurement,setting,value
"Cc1c(NS(=O)(=O)c2c(Cl)cc(-c3ccnc(N4CCNCC4)c3)cc2Cl)c(CC(C)C)nn1C [PCLX-001, 2,6-dichloro-N-(3-isobutyl-1,5-dimethyl-1H-pyrazol-4-yl)-4-(2-(piperazin-1-yl)pyridin-4-yl)benzenesulfonamide]",HGAL protein level in vitro,HGAL [1],significantly decreased
same,response of lymphoma (Lugano classification criteria),[2],disease progression; also recorded: progression of the volume of lymphoma
same,change of HGAL protein level in circulating blood mononuclear cells,HGAL [3]; [14],no clear change; also recorded: no apparent trend
same,"HGAL intracellular level, % of population ± CV, Day 28","HGAL [3]; CD4+ T cells, untreated: Screening 12.7, Day 1 22.1",8.6 ± 0.58%
same,"HGAL intracellular level, % of population ± CV, Day 28","HGAL [3]; CD8+ T cells, untreated: Screening 25, Day 1 30.3",17 ± 0.63%
same,"HGAL intracellular level, % of population ± CV, Day 28","HGAL [3]; CD14+ Monocytes, untreated: Screening 83.9, Day 1 87.5",88.3 ± 0.64%
same,"HGAL intracellular level, % of population ± CV, Day 28","HGAL [3]; CD19+ B cells, untreated: Screening 2.44, Day 1 11.2",8.33 ± 0.39%
same,change of HGAL expression in CD14+ monocytes,HGAL [3]; after 28 days of treatment,did not decrease
same,"effect on live T cell, B cell and monocyte populations","[4]; 28 days of PCLX-001 treatment, 20 mg daily",only marginally affected
same,"CD19+ B cells, % of population ± CV, Day 28","[4]; live PBMC, 28 days of 20 mg daily, untreated: Screening 0.71, Day 1 1.18",0.59 ± 0.50%
same,"CD14+ monocytes, % of population ± CV, Day 28","[4]; live PBMC, 28 days of 20 mg daily, untreated: Screening 5.01, Day 1 14.2",4.51 ± 0.42%
same,"CD8+ T cells, % of population ± CV, Day 28","[4]; live PBMC, 28 days of 20 mg daily, untreated: Screening 25.1, Day 1 23.1",22.5 ± 0.31%
same,"CD4+ T cells, % of population ± CV, Day 28","[4]; live PBMC, 28 days of 20 mg daily, untreated: Screening 40.2, Day 1 42.5",46.8 ± 0.22%
same,"Total T cells (CD3+), % of population ± CV, Day 28","[4]; live PBMC, 28 days of 20 mg daily, untreated: Screening 66.6, Day 1 66.7",70.1 ± 0.50%
same,Lyn protein level in vitro,Lyn [5],significantly decreased
same,cardiac conduction,[6]; animal non-clinical safety testing,no cardiac conduction issues
same,dose-limiting toxicity in GLP non-clinical safety testing,[6],diarrhea was dose-limiting
same,dose-limiting toxicities,[7]; 28-day cycle,did not experience any dose-limiting toxicities; also recorded: no protocol-defined dose-limiting toxicities
same,hematopoietic profile and biochemistry,[7]; throughout the trial,"remained normal; also recorded: no evidence of toxicity to hematopoietic function, liver function, or kidney function"
same,change of Lyn protein level in circulating blood mononuclear cells,Lyn [8]; [14],no clear change; also recorded: no apparent trend; also recorded: no significant decrease
same,"Lyn intracellular level, % of population ± CV, Day 28","Lyn [8]; CD4+ T cells, untreated: Screening 13.7, Day 1 20",28.7 ± 0.37%
same,"Lyn intracellular level, % of population ± CV, Day 28","Lyn [8]; CD8+ T cells, untreated: Screening 17.6, Day 1 25.8",33.3 ± 0.31%
same,"Lyn intracellular level, % of population ± CV, Day 28","Lyn [8]; CD14+ Monocytes, untreated: Screening 51.4, Day 1 40.5",66.6 ± 0.59%
same,"Lyn intracellular level, % of population ± CV, Day 28","Lyn [8]; CD19+ B cells, untreated: Screening 8.33, Day 1 12.4",12.1 ± 0.15%
same,AUC(0-inf),"[9]; human, plasma, po, 20 mg, 20 mg oral daily, Day 15, plasma, read-out: Day 15 AUC0–∞",2640 ng·h/mL
same,Cmax,"[9]; human, plasma, po, 20 mg, 20 mg oral, Day 1 single dose, plasma, read-out: Cmax",278 ng/mL
same,AUC(0-inf),"[9]; human, plasma, po, 20 mg, 20 mg oral, first dose (Day 1), plasma, read-out: AUC0–∞",2360 ng·h/mL
same,half-life,"[9]; human, plasma, po, 20 mg, 20 mg oral, single dose, read-out: T ½ (apparent terminal half-life) (converted)",16 h
same,MRT,"[9]; human, plasma, 20 mg oral, single dose",18.6 h
same,Tmax,"[9]; human, 20 mg oral, Day 1 single dose, plasma",1.1 h
same,Day 22 pre-dose plasma concentration,"[9]; 20 mg oral daily, Day 22 pre-dose (trough)",51.4 ng/mL
same,drug accumulation in plasma after repeated daily dosing,"[9]; 20 mg oral daily, first dose AUC vs day 15 AUC",without systemic accumulation of drug by day 15; also recorded: no evidence of drug accumulation
same,AUC0-tlast,[9]; [15],1701.33 ng·h/mL
same,Cmax,[9]; [15],278.23 ng/mL
same,AUMC,"[9]; 20 mg oral, single dose","43,883.76 ng/mL.h^2"
same,CLoral,"[9]; 20 mg oral, single dose",8.4 L/h
same,T ½ (apparent terminal half-life),"[9]; 20 mg oral, single dose",16.42 h
same,Vdss,"[9]; 20 mg oral, single dose",156.49 L
same,off-target kinase inhibition,kinase,no significant off-target kinase inhibition
same,inhibition of hematologic and lymphoma cell lines,[10],markedly inhibits
same,response in solid cancers,[11],tumour responses
same,response of human cancers grown in immunodeficient mice,[11],complete remissions
same,oral bioavailability,[12],complete oral bioavailability
same,BTK modification and downstream signaling,[13],profoundly inhibited
same,change of NMT2 protein level in circulating blood mononuclear cells,"NMT2; 20 mg daily, 28 days, all cell populations with the exception of monocytes",no clear change; also recorded: very stable
same,"NMT2 intracellular level, % of population ± CV, Day 28","NMT2; CD4+ T cells, untreated: Screening 22.8, Day 1 25.7",35.3 ± 0.36%
same,"NMT2 intracellular level, % of population ± CV, Day 28","NMT2; CD8+ T cells, untreated: Screening 11, Day 1 12.7",18.7 ± 0.33%
same,"NMT2 intracellular level, % of population ± CV, Day 28","NMT2; CD14+ Monocytes, untreated: Screening 6.21, Day 1 6.7",11.7 ± 0.17%
same,"NMT2 intracellular level, % of population ± CV, Day 28","NMT2; CD19+ B cells, untreated: Screening 31.8, Day 1 29",33.3 ± 0.24%
same,change of NMT2 protein level in monocytes,NMT2; end of the first cycle,increased
same,hERG interaction,hERG,no significant hERG interaction
